Assay results taken from US4323568A, “Pharmaceutically active (omega-aminoalkoxy)bibenzyls” (Mitsubishi Chemical Industries Limited, priority 1977, dated 1982).
Structures can show the parent of a compound that is named as a salt.

Columns and labels:
[1] = test system: rabbit blood platelet aggregation; test: inhibition of collagen-induced platelet aggregation in rabbit platelet-rich plasma (turbidometric method of Born); format: cell-based; settings: Oryctolagus cuniculus, collagen 10 to 15 μg/ml, 37° C., 3 min preincubation, read-out: I50 (concentration inhibiting platelet aggregation by 50 percent)
Protocol: Evaluation of the compounds of this invention for their activity against platelet aggregation was carried out according to a turbidometric method described by G. V. R. Born, Nature 194 927 (1962). Platelet aggregation was measured using platelet-rich plasma prepared from citrated blood which was collected from a carotid artery of male white rabbits of Japanese native kind. A suspension of collagen (bovine Achilles tendon collagen, Sigma) in saline was used to cause platelet aggregation. The aggregation of rabbit blood platelet was induced by adding the suspension of collagen to give 10 to 15 μg collagen per milliliter. At this time, the tests were conducted at 37° C. at levels of 4×10^5 platelet/mm^3. A solution of compounds of this invention in saline was added to the platelet-rich plasma. After three minutes of preincubation with the platelet-rich plasma, collagen was added to cause platelet aggregation. Percent inhibition was calculated by comparison with controls.
Using the above procedure, the compounds of this invention were compared to aspirin.
(§1) The concentration of the compound in micromoles inhibiting platelet aggregation by 50 percent (I50) and LD50 which was calculated by Litchfield-Wilcoxon method are shown in Table 1.

[2] = LD50 i.p. in mice, calculated by Litchfield-Wilcoxon method; settings: mouse, in vivo, ip, read-out: ID50 (the source's name)
Protocol: as §1

| SMILES | IC50 [1] | LD50 [2] |
| --- | --- | --- |
| CC(=O)Oc1ccccc1C(=O)O [Aspirin, aspirin, reference compound] | 25000 nM | – |
| CN(C)CCOc1ccccc1CCc1ccccc1 [Example 1, 2-(2-dimethylaminoethoxy)bibenzyl hydrochloride] | 600 nM | 165 mg/kg |
| CN(C)CCCOc1ccccc1CCc1ccccc1 [Example 2, 2-(3-dimethylaminopropoxy)bibenzyl hydrochloride] | 600 nM | – |
| CN(C)CCCCOc1ccccc1CCc1ccccc1 [Example 3, 2-(4-dimethylaminobutoxy)bibenzyl] | 600 nM | 215 mg/kg |
| CN(C)CCCCCOc1ccccc1CCc1ccccc1 [Example 4, 2-(5-dimethylaminopentyloxy)bibenzyl] | 800 nM | 205 mg/kg |
| CN(C)CCCCCCOc1ccccc1CCc1ccccc1 [Example 5, 2-(6-dimethylaminohexyloxy)bibenzyl] | 1000 nM | – |
| CNCCCCOc1ccccc1CCc1ccccc1 [Example 6, 2-(4-methylaminobutoxy)bibenzyl] | 7000 nM | – |
| CCCCN(C)CCCCOc1ccccc1CCc1ccccc1 [Example 7, 2-[4-(N-methyl-N-butylamino)butoxy]bibenzyl] | 3000 nM | – |
| CN(CCO)CCCCOc1ccccc1CCc1ccccc1 [Example 8, 2-{4-[N-methyl-N-(2-hydroxyethyl)amino]butoxy}bibenzyl] | 2000 nM | – |
| c1ccc(CCc2ccccc2OCCCCN2CCCCC2)cc1 [Example 9, 2-(4-piperidinobutoxy)bibenzyl] | 1000 nM | – |
| c1ccc(CCc2ccccc2OCCCCN2CCOCC2)cc1 [Example 10, 2-(4-morpholinobutoxy)bibenzyl] | 10000 nM | – |
| c1ccc(CCc2ccccc2OCCCCN2CCNCC2)cc1 [Example 11, 2-[4-(1-piperazinyl)butoxy]bibenzyl dihydrochloride] | 2000 nM | – |
| c1ccc(CCc2ccccc2OCCCCN2CCCC2)cc1 [Example 12, 2-[4-(1-pyrrolidinyl)butoxy]bibenzyl] | 700 nM | – |
| OCCN1CCN(CCCCOc2ccccc2CCc2ccccc2)CC1 [Example 13, 2-{4-[4-(2-hydroxyethyl)-1-piperazinyl]butoxy}bibenzyl] | 3000 nM | – |
| OCCN(CCO)CCCCOc1ccccc1CCc1ccccc1 [Example 14, 2-[4-bis(2-hydroxyethyl)aminobutoxy]bibenzyl] | 5000 nM | – |
| CCN(CC)CCOc1ccccc1CCc1ccccc1 [Example 15, 2-(2-diethylaminoethoxy)bibenzyl] | 500 nM | – |
| CCN(CC)CCCOc1ccccc1CCc1ccccc1 [Example 16, 2-(3-diethylaminopropoxy)bibenzyl] | 500 nM | 187 mg/kg |
| CCN(CC)CCCCOc1ccccc1CCc1ccccc1 [Example 17, 2-(4-diethylaminobutoxy)bibenzyl] | 800 nM | – |
| CCN(CC)CCCCCOc1ccccc1CCc1ccccc1 [Example 18, 2-(5-diethylaminopentyloxy)bibenzyl] | 1000 nM | – |
| CCN(CC)CCCCCCOc1ccccc1CCc1ccccc1 [Example 19, 2-(6-diethylaminohexyloxy)bibenzyl] | 1000 nM | – |
| CN(C)CCCOc1ccc(CCc2ccccc2)cc1 [Example 20, 4-(3-dimethylaminopropoxy)bibenzyl] | 2000 nM | – |
| CN(C)CCCCOc1ccc(CCc2ccccc2)cc1 [Example 21, 4-(4-dimethylaminobutoxy)bibenzyl] | 2000 nM | – |
| Cl.O=C(O)C1CCN(CCCCOc2ccccc2CCc2ccccc2)CC1 [Example 22, 2-[4-(4-carboxypiperidino)butoxy]bibenzyl hydrochloride] | 5500 nM | 500 mg/kg |
| NC(=O)C1CCN(CCCCOc2ccccc2CCc2ccccc2)CC1 [Example 24, 2-[4-(4-carbamoylpiperidino)butoxy]bibenzyl] | 1500 nM | 500 mg/kg |
| NC(=O)C1CCN(CCOc2ccccc2CCc2ccccc2)CC1 [Example 25, 2-[2-(4-carbamoylpiperidino)ethoxy]bibenzyl] | 2500 nM | – |

| SMILES | IC50 [1] | LD50 [2] |
| --- | --- | --- |
| CN(C)C(=O)C1CCN(CCCCOc2ccccc2CCc2ccccc2)CC1 [Example 26, 2-[4-(4-dimethylcarbamoylpiperidino)butoxy]bibenzyl hydrochloride] | 3000 nM | – |
| CCNC(=O)C1CCN(CCCCOc2ccccc2CCc2ccccc2)CC1 [Example 27, 2-[4-(4-ethylcarbamoylpiperidino)butoxy]bibenzyl] | 2500 nM | – |
| NC(=O)C1CCCN(CCCCOc2ccccc2CCc2ccccc2)C1 (stereo not shown) [Example 29, 2-[4-(3-carbamoylpiperidino)butoxy]bibenzyl] | 1400 nM | 270 mg/kg |
| NC(=O)C1CCN(CCCOc2ccccc2CCc2ccccc2)CC1 [Example 30, 2-[3-(4-carbamoylpiperidino)propoxy]bibenzyl] | 2000 nM | – |
| COc1ccccc1CCc1ccccc1OCCN(C)C [Example 31, 2-(2-dimethylaminoethoxy)-2'-methoxybibenzyl] | 600 nM | – |
| COc1ccccc1CCc1ccccc1OCCCCN(C)C [Example 32, 2-(4-dimethylaminobutoxy)-2'-methoxybibenzyl] | 900 nM | 250 mg/kg |
| COc1cccc(CCc2ccccc2OCCCCN(C)C)c1 [Example 34, 2-(4-dimethylaminobutoxy)-3'-methoxybibenzyl] | 550 nM | 200 mg/kg |
| COc1cccc(CCc2ccccc2OCCCCN2CCN(CCO)CC2)c1 [Example 35, 2-{4-[4-(2-hydroxyethyl)-1-piperazinyl]butoxy}-3'-methoxybibenzyl] | 1200 nM | – |
| CCOc1ccccc1CCc1ccccc1OCCCCN(CC)CC [Example 37, 2-(4-diethylaminobutoxy)-2'-ethoxybibenzyl] | 1000 nM | – |
| CN(C)CCCCOc1ccccc1CCc1ccccc1O [Example 38, 2-(4-dimethylaminobutoxy)-2'-hydroxybibenzyl] | 900 nM | 167 mg/kg |
| COC(=O)c1ccccc1CCc1ccccc1OCCN(C)C [Example 41, 2-(2-dimethylaminoethoxy)-2'-methoxycarbonylbibenzyl] | 500 nM | 130 mg/kg |
| CN(C)CCCOc1ccccc1CCc1ccc(Cl)cc1 [Example 44, 2-(3-dimethylaminopropoxy)-4'-chlorobibenzyl] | 600 nM | 185 mg/kg |
| OCCN1CCN(CCCCOc2ccccc2CCc2ccc(Cl)cc2)CC1 [Example 45, 2-{4-[4-(2-hydroxyethyl)-1-piperazinyl]butoxy}-4'-chlorobibenzyl] | 3000 nM | – |
| Clc1ccc(CCc2ccccc2OCCCCN2CCCC2)cc1 [Example 46, 2-[4-(1-pyrrolidinyl)butoxy]-4'-chlorobibenzyl] | 1300 nM | – |
| CN(C)CCCCOc1ccccc1CCc1ccccc1Cl.Cl [Example 47, 2-(4-dimethylaminobutoxy)-2'-chlorobibenzyl hydrochloride] | 500 nM | 170 mg/kg |
| CN(C)CCCCCCOc1ccccc1CCc1ccccc1Cl [Example 51, 2-(6-dimethylaminohexyloxy)-2'-chlorobibenzyl] | 800 nM | 250 mg/kg |
| CN(C)CCCOc1ccccc1CCc1ccccc1Cl [Example 52, 2-(3-dimethylaminopropoxy)-2'-chlorobibenzyl] | 630 nM | – |
| CN(C)CCCOc1ccccc1CCc1ccc(Cl)c(Cl)c1.Cl [Example 54, 2-(3-dimethylaminopropoxy)-3',4'-dichlorobibenzyl hydrochloride] | 600 nM | 250 mg/kg |
| CN(C)CCCCOc1ccccc1CCc1ccc(F)cc1 [Example 55, 2-(4-dimethylaminobutoxy)-4'-fluorobibenzyl] | 750 nM | 185 mg/kg |
| NC(=O)C1CCN(CCCCOc2ccccc2CCc2ccc(F)cc2)CC1 [Example 56, 2-[4-(4-carbamoylpiperidino)butoxy]-4'-fluorobibenzyl] | 1300 nM | 450 mg/kg |
| OC1CCN(CCCCOc2ccccc2CCc2ccc(F)cc2)CC1 [Example 58, 2-[4-(4-hydroxypiperidino)butoxy]-4'-fluorobibenzyl] | 1100 nM | – |
| Cc1ccccc1CCc1ccccc1OCCCCN(C)C [Example 61, 2-(4-dimethylaminobutoxy)-2'-methylbibenzyl] | 1100 nM | – |
| Cc1ccccc1CCc1ccccc1OCCCCN1CCC(C(N)=O)CC1 [Example 63, 2-[4-(4-carbamoylpiperidino)butoxy]-2'-methylbibenzyl] | 2000 nM | – |
| CN(C)CCCOc1ccccc1CCc1ccc(N(C)C)cc1 [Example 64, 2-(3-dimethylaminopropoxy)-4'-dimethylaminobibenzyl] | 350 nM | – |
| COc1cccc(CCc2ccccc2)c1OCCCCN(C)C [Example 67, 2-(4-dimethylaminobutoxy)-3-methoxybibenzyl] | 3000 nM | – |
